Experimental data published in US4754059A, “Omega cycloalkyl prostaglandins” (G. D. Searle & Co., priority 1984, dated 1988).

Tests used:
gastric secretions = assay: Dog gastric antisecretory activity (histamine-stimulated, Thomas-type gastric cannula); type: in vivo, beagle dogs; conditions: for ED50: Canis lupus familiaris, po, histamine stimulation
Procedure: The standard test used to detect gastric antisecretory activity is described as follows.
Adult female beagle dogs weighing 6-11 kg. are prepared with whole stomach simple Thomas-type gastric cannulas.
Following full recovery from the surgical implantation of the gastric cannula, the dogs are trained to stand quietly, though fully conscious, in Pavlov-type dog restraining slings and are accustomed to intravenous histamine infusion.
Experiments are initiated by depriving dogs of food, but not water, for 18 hours. With an initial infusion of 0.15M sodium chloride, at a constant rate of 6.5 ml/hr, gastric secretions collected in plastic bottles affixed to the cannula, are taken at 15 minute intervals and measured for volume to the nearest 0.1 ml. Following a 30-45 minute basal secretion period, the collection bottles are removed, dosing plugs inserted, and compound administered. A 3.0 ml saline wash follows immediately.
After the end of a 30 minute drug absorption period the stomachs are emptied, collection bottles again attached, and the collections resumed at 30 minute intervals. Simultaneously, the saline infusion is replaced with a continuous intravenous infusion of histamine dihydrochloride in saline at 15 ug/kg/hr for four hours. Gastric samples are analysed for pH and titratable acidity determinations.
An analysis of the data for each measured or derived variable compares observations recorded following treatment with variables obtained for the same group of animals receiving histamine stimulation alone. Three parameters, gastric juice volume (ml/30 min), acid concentration (mEq/L), and total acid output (mEq/30 min) are analyzed individually. The data thus obtained are analyzed using interval-by-interval paired Student's t-test or two-way analysis of variance to achieve an indication of potency and duration of action. Percentage inhibition is calculated using pooled mean values for the four hour treatment period. Duration of activity is defined as the length of time of significant inhibition.

[1] = system: lower esophageal sphincter; assay: Contraction of the lower esophageal sphincter; conditions: no method given
[2] = Diarrheogenic activity in rats; type: in vivo, Charles River rats
Procedure: Diarrhea is an undesirable side effect commonly associated with antisecretory and cytoprotective prostaglandins.
Groups of six adult male Charles River rats, weight range 180 to 200 grams, are fasted for 24 hours prior to administering the test substance. The prostaglandin to be tested is administered intragastrically in iso-osmotic phosphate buffer at a volume of 10 ml/kg at doses ranging from 100 to 3000 microgram/kg. Control animals receive only the vehicle. The rats are placed in individual wire mesh cages and the trays lined with brown paper. Diarrhea is assessed at hourly intervals on an all or none basis for up to eight hours after administration of the prostaglandin. Diarrhea is defined as any loose or watery stool. ED50 values are assessed for each hourly diarrheogenic response.

[3] = intragastric administration, dog

COC(=O)CCC/C=C\C[C@H]1C(=O)C[C@@H](O)[C@@H]1/C=C/CC(C)(O)CCC1CCCC1 (relative stereo) [Compound II, reference compound]
Dog antisecretory activity (in words) (gastric secretions; intragastric administration, dog, doses 0.3 and 1.0): Inactive at 0.3 and 1.0

COC(=O)CC/C=C\CC[C@H]1C(=O)C[C@@H](O)[C@@H]1/C=C/CC(C)(O)CCC1CC1 (relative stereo) [Example 1]
ED50 (gastric secretions; [3]): 0.2 µg/kg

COC(=O)CC/C=C\CC[C@H]1C(=O)C[C@@H](O)[C@@H]1/C=C/CC(C)(O)CCC1CCCC1 (relative stereo) [Example 2]
property of contracting the lower esophageal sphincter [1]: contracting the lower esophageal sphincter
diarrheogenic properties (in words) [2]: low
antisecretory activity (in words) (gastric secretions): potent
ED50 (gastric secretions; [3]): 0.3 µg/kg

COC(=O)CC/C=C\CC[C@H]1C(=O)C[C@@H](O)[C@@H]1/C=C/CC(C)(O)CCC1CCC1 (relative stereo) [Example 3]
diarrheogenic properties (in words) [2]: low
antisecretory activity (in words) (gastric secretions): potent

COC(=O)CC/C=C\CC[C@H]1C(=O)C[C@@H](O)[C@@H]1/C=C/CC(C)(O)CCC1(C)CC1 (relative stereo) [Example 7, methyl 7-[3α-hydroxy-2β-4-hydroxy-4-methyl-6-(1-methylcyclopropyl)-1-trans-hexenyl-5-oxocyclopentane]-1α-hept-4-cis-enoate]
ED50 (gastric secretions; [3]): 0.3 µg/kg
